According to US11427615B2, “Peptide compound and application thereof, and composition containing peptide compound” (XDCEXPLORER (SHANGHAI) CO., LTD., priority 2017, dated 2022):
Read-outs that look alike come from different tables or passages of the source. Starred links: 1 amine or outer side, 2 acyl side, 3 side chain; linkers in the order of their positions; H or OH if unused. Non-standard residues stand in square brackets, D forms with d. Residues, ends and D or L forms follow the SMILES beside them. dPhe(2,4-Cl2) = N[C@H](Cc1ccc(Cl)cc1Cl)C(=O)O; Ala(4-thiazolyl) = N[C@@H](Cc1cscn1)C(=O)O; Ala(2-furyl) = N[C@@H](Cc1ccco1)C(=O)O; Phe(4-F) = N[C@@H](Cc1ccc(F)cc1)C(=O)O; Pro(4,4-F2) = O=C(O)[C@@H]1CC(F)(F)CN1; dAla(2-furyl) = N[C@H](Cc1ccco1)C(=O)O; dPhe(4-F) = N[C@H](Cc1ccc(F)cc1)C(=O)O; Arg(Me) = CNC(=N)NCCC[C@H](N)C(=O)O; Hyp = O=C(O)[C@@H]1C[C@@H](O)CN1; azaPro = O=C(N1CCCN1[*:1])[*:2]; 2Thi = N[C@@H](Cc1cccs1)C(=O)O; Gly(cPr) = N[C@H](C(=O)O)C1CC1; NMeL = CN[C@@H](CC(C)C)C(=O)O; X15 = CN(NC(=O)[*:2])[*:1]; Pip = O=C(O)[C@@H]1CCCCN1; Ac6c = NC1(C(=O)O)CCCCC1; Aze = O=C(O)[C@@H]1CCN1; azaGly = NNC(=O)O; βAla = NCCC(=O)O

Biological target: T1, human kiss1 receptor (GPR54) (Homo sapiens, UniProt Q969F8)
T1 construct: host or cells: NFAT-bla CHO-K1 cells (Chinese hamster ovary), purchased recombinant cell line
Assay: Kiss1 receptor (GPR54) binding activity of agonists, FRET detection in NFAT-bla CHO-K1 cells
Format: cell-based
Conditions: preliminary data, read-out: Preliminary measurement data (GPR54) EC50

[1] = GPR54, measured according to the method of effect Embodiment 1
[2] = human kiss1 receptor (GPR54), NFAT-bla CHO-K1 cells, FRET, method of effect Embodiment 1

T1 sequence (Q969F8 whole entry): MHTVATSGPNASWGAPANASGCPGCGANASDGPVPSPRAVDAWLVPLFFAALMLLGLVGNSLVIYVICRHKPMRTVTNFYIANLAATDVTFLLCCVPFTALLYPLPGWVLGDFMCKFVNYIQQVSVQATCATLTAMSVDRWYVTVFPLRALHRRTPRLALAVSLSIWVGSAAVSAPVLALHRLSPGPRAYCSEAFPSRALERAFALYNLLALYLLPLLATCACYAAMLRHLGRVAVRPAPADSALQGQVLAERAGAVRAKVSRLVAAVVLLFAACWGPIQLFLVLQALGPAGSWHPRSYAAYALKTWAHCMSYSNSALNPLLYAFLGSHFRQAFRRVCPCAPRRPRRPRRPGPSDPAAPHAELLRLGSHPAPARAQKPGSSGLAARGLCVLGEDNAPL

Row | Structure (SMILES) | EC50 [1] [nM] | EC50 [2] [nM]
1 | CNC(=N)NCCC[C@H](NC(=O)[C@H](CC(C)C)NC(=O)[C@@H]1CCN1C(=O)[C@H](Cc1ccccc1)NC(=O)[C@H](Cc1ccco1)NC(=O)[C@H](CC(N)=O)NC(=O)[C@@H]1C[C@@H](O)CN1C(=O)[C@@H](Cc1ccc(O)cc1)NC(C)=O)C(=O)N[C@@H](Cc1c[nH]c2ccccc12)C(N)=O [YA-203, Ac-(D-Tyr)-Hyp-Asn-2Fua-Phe-Aze-Leu-Arg(Me)-Trp-NH2] (Ac-[dY][Hyp]N[Ala(2-furyl)]F[Aze]L[Arg(Me)]W-NH2) | 1.19 | –
2 | CNC(=N)NCCC[C@H](NC(=O)[C@H](CC(C)C)NC(=O)N1CCCN1C(=O)[C@H](Cc1ccccc1)NC(=O)[C@@H](NC(=O)[C@H](CC(N)=O)NC(=O)[C@@H]1C[C@@H](O)CN1C(=O)[C@@H](Cc1ccc(Cl)cc1Cl)NC(C)=O)[C@@H](C)O)C(=O)N[C@@H](Cc1c[nH]c2ccccc12)C(N)=O [YA-184, Ac-[D-Phe(2,4-DiCl)]-Hyp-Asn-Thr-Phe-azaPro-Leu-Arg(Me)-Trp-NH2] (Ac-[dPhe(2,4-Cl2)][Hyp]NTF[azaPro]L[Arg(Me)]W-NH2) | 48 | –
3 | CNC(=N)NCCC[C@H](NC(=O)[C@H](CC(C)C)NC(=O)[C@@H]1CCN1C(=O)[C@H](Cc1ccccc1)NC(=O)[C@@H](NC(=O)[C@H](CC(N)=O)NC(=O)[C@H](Cc1cccs1)NC(=O)[C@@H](Cc1ccc(O)cc1)NC(C)=O)[C@@H](C)O)C(=O)N[C@@H](Cc1c[nH]c2ccccc12)C(N)=O [YA-191, Ac-D-Tyr-Thi-Asn-Thr-Phe-Aze-Leu-Arg(Me)-Trp-NH2] (Ac-[dY][2Thi]NTF[Aze]L[Arg(Me)]W-NH2) | 0.521 | –
4 | CNC(=N)NCCC[C@H](NC(=O)[C@H](CC(C)C)NC(=O)NNC(=O)[C@H](Cc1ccccc1)NC(=O)[C@@H](NC(=O)[C@H](CC(N)=O)NC(=O)C1(NC(C)=O)CCCCC1)[C@@H](C)O)C(=O)N[C@@H](Cc1c[nH]c2ccccc12)C(N)=O [YA-266, Ac-A6c-Asn-Thr-Phe-azaG-Leu-Arg(Me)-Trp-NH2] (Ac-[Ac6c]NTF[azaGly]L[Arg(Me)]W-NH2) | 0.32 | –
5 | CNC(=N)NCCC[C@H](NC(=O)[C@H](CC(C)C)NC(=O)C1(NC(=O)[C@H](Cc2ccccc2)NC(=O)[C@@H](NC(=O)[C@H](CC(N)=O)NC(=O)[C@@H]2CCCCN2C(=O)[C@H](Cc2ccc(F)cc2)NC(C)=O)[C@@H](C)O)CCCCC1)C(=O)N[C@@H](Cc1c[nH]c2ccccc12)C(N)=O [YA-202, Ac-Phe(4-F)-(S-Pip)-Asn-Thr-Phe-A6c-Leu-Arg(Me)-Trp-NH2] (Ac-[Phe(4-F)][Pip]NTF[Ac6c]L[Arg(Me)]W-NH2) | 9.6 | –
6 | CNC(=N)NCCC[C@H](NC(=O)[C@H](CC(C)C)NC(=O)C1(NC(=O)[C@H](Cc2ccccc2)NC(=O)[C@@H](NC(=O)[C@H](CC(N)=O)NC(=O)C2(NC(=O)[C@@H](Cc3ccc(Cl)cc3Cl)NC(C)=O)CCCCC2)[C@@H](C)O)CCCCC1)C(=O)N[C@@H](Cc1c[nH]c2ccccc12)C(N)=O [YA-259, Ac-D-Phe(2,4-DiCl)-A6c-Asn-Thr-Phe-Abc-Leu-Arg(Me)-Trp-NH2] (Ac-[dPhe(2,4-Cl2)][Ac6c]NTF[Ac6c]L[Arg(Me)]W-NH2) | – | 3.2
7 | CNC(=N)NCCC[C@H](NC(=O)[C@H](CC(C)C)NC(=O)[C@@H]1CCN1C(=O)[C@H](Cc1ccccc1)NC(=O)[C@@H](NC(=O)[C@H](CC(N)=O)NC(=O)[C@@H]1CC(F)(F)CN1C(=O)[C@@H](Cc1ccc(F)cc1)NC(C)=O)[C@@H](C)O)C(=O)N[C@@H](Cc1c[nH]c2ccccc12)C(N)=O [YA-213, Ac-[D-Phe(4-F)]-Pro(diF)-Asn-Thr-Phe-Aze-Leu-Arg(Me)-Trp-NH2] (Ac-[dPhe(4-F)][Pro(4,4-F2)]NTF[Aze]L[Arg(Me)]W-NH2) | 0.4 | –
8 | CNC(=N)NCCC[C@H](NC(=O)[C@H](CC(C)C)NC(=O)[C@@H](NC(=O)[C@H](Cc1ccccc1)NC(=O)[C@@H](NC(=O)[C@H](CC(N)=O)NC(=O)[C@@H]1C[C@@H](O)CN1C(=O)[C@@H](Cc1ccc(O)cc1)NC(C)=O)[C@@H](C)O)C1CC1)C(=O)N[C@@H](Cc1c[nH]c2ccccc12)C(N)=O [YA-396, Ac-(D-Tyr)-Hyp-Asn-Thr-Phe-Cpg-Leu-Leu-Arg(Me)-Trp-NH2] (Ac-[dY][Hyp]NTF[Gly(cPr)]L[Arg(Me)]W-NH2) | – | 1.19
9 | CNC(=N)NCCC[C@H](NC(=O)[C@H](CC(C)C)NC(=O)[C@@H]1CCN1C(=O)[C@H](Cc1ccccc1)NC(=O)[C@H](Cc1ccco1)NC(=O)[C@H](CC(N)=O)NC(=O)[C@H](Cc1cccs1)NC(=O)[C@@H](Cc1ccc(O)cc1)NC(C)=O)C(=O)N[C@@H](Cc1c[nH]c2ccccc12)C(N)=O [YA-204, Ac-(D-Tyr)-Thi-Asn-2Fua-Phe-Aze-Leu-Arg(Me)-Trp-NH2] (Ac-[dY][2Thi]N[Ala(2-furyl)]F[Aze]L[Arg(Me)]W-NH2) | 8.72 | –
10 | CNC(=N)NCCC[C@H](NC(=O)[C@H](CC(C)C)NC(=O)[C@@H]1CCCCN1C(=O)[C@H](Cc1ccccc1)NC(=O)[C@@H](NC(=O)[C@H](CC(N)=O)NC(=O)[C@@H]1C[C@@H](O)CN1C(=O)[C@@H](Cc1ccc(O)cc1)NC(C)=O)[C@@H](C)O)C(=O)N[C@@H](Cc1c[nH]c2ccccc12)C(N)=O [YA-226, Ac-(D-Tyr)-Hyp-Asn-Thr-Phe-(S-Pip)-Leu-Arg(Me)-Trp-NH2] (Ac-[dY][Hyp]NTF[Pip]L[Arg(Me)]W-NH2) | 8 | –
11 | CNC(=N)NCCC[C@H](NC(=O)[C@H](CC(C)C)NC(=O)C1(NC(=O)[C@H](Cc2ccccc2)NC(=O)[C@@H](NC(=O)[C@H](CC(N)=O)NC(=O)[C@H](Cc2c[nH]c3ccccc23)NC(=O)[C@H](Cc2cccs2)NC(=O)[C@@H](Cc2ccc(Cl)cc2Cl)NC(C)=O)[C@@H](C)O)CCCCC1)C(=O)N[C@@H](Cc1c[nH]c2ccccc12)C(N)=O [YA-207, Ac-[D-Phe(2,4-DiCl)]-Thi-Trp-Asn-Thr-Phe-A6c-Leu-Arg(Me)-Trp-NH2] (Ac-[dPhe(2,4-Cl2)][2Thi]WNTF[Ac6c]L[Arg(Me)]W-NH2) | 90 | –
12 | CNC(=N)NCCC[C@H](NC(=O)[C@H](CC(C)C)N(C)C(=O)CCNC(=O)[C@H](Cc1ccccc1)NC(=O)[C@@H](NC(=O)[C@H](CC(N)=O)NC(=O)[C@@H]1C[C@@H](O)CN1C(=O)[C@@H](Cc1ccco1)NC(C)=O)[C@@H](C)O)C(=O)N[C@@H](Cc1c[nH]c2ccccc12)C(N)=O [YA-164, Ac-[3-(2-furyl)-D-Ala]-Hyp-Asn-Thr-Phe-BetaAla-(NMe-Leu)-Arg(Me)-Trp-NH2] (Ac-[dAla(2-furyl)][Hyp]NTF[βAla][NMeL][Arg(Me)]W-NH2) | 1.75 | –
13 | CNC(=N)NCCC[C@H](NC(=O)[C@H](CC(C)C)NC(=O)NNC(=O)[C@H](Cc1ccccc1)NC(=O)[C@@H]1CCN1C(=O)[C@H](CC(N)=O)NC(=O)[C@@H]1C[C@@H](O)CN1C(=O)[C@@H](Cc1ccc(O)cc1)NC(C)=O)C(=O)N[C@@H](Cc1c[nH]c2ccccc12)C(N)=O [YA-388, Ac-(D-Tyr)-Hyp-Asn-Aze-Phe-azaGly-Leu-Arg(Me)-Trp-NH2] (Ac-[dY][Hyp]N[Aze]F[azaGly]L[Arg(Me)]W-NH2) | 0.058 | –
14 | CNC(=N)NCCC[C@H](NC(=O)[C@H](CC(C)C)NC(=O)[C@@H]1CCN1C(=O)[C@H](Cc1ccccc1)NC(=O)[C@@H](NC(=O)[C@H](CC(N)=O)NC(=O)[C@@H]1CC(F)(F)CN1C(=O)[C@@H](Cc1ccc(O)cc1)NC(C)=O)[C@@H](C)O)C(=O)N[C@@H](Cc1c[nH]c2ccccc12)C(N)=O [YA-193, Ac-(D-Tyr)-Pro(diF)-Asn-Thr-Phe-Aze-Leu-Arg(Me)-Trp-NH2] (Ac-[dY][Pro(4,4-F2)]NTF[Aze]L[Arg(Me)]W-NH2) | 1.36 | –
15 | CNC(=N)NCCC[C@H](NC(=O)[C@H](CC(C)C)NC(=O)C1(NC(=O)[C@H](Cc2ccccc2)NC(=O)[C@@H](NC(=O)[C@H](CC(N)=O)NC(=O)[C@@H]2CC(F)(F)CN2C(=O)[C@@H](Cc2ccc(O)cc2)NC(C)=O)[C@@H](C)O)CCCCC1)C(=O)N[C@@H](Cc1c[nH]c2ccccc12)C(N)=O [YA-251, Ac-D-Tyr-Pro(diF)-Asn-Thr-Phe-A6c-Leu-Arg(Me)-Trp-NH2] (Ac-[dY][Pro(4,4-F2)]NTF[Ac6c]L[Arg(Me)]W-NH2) | 0.65 | –
16 | CNC(=N)NCCC[C@H](NC(=O)[C@H](CC(C)C)NC(=O)[C@H](Cc1cscn1)NC(=O)[C@H](Cc1ccccc1)NC(=O)[C@@H](NC(=O)[C@H](CC(N)=O)NC(=O)[C@@H]1C[C@@H](O)CN1C(=O)[C@@H](Cc1ccc(O)cc1)NC(C)=O)[C@@H](C)O)C(=O)N[C@@H](Cc1c[nH]c2ccccc12)C(N)=O [YA-357, Ac-(D-Tyr)-Hyp-Asn-Thr-Phe-Beta-(thiazoly-4-yl)-L-Ala-Leu-Arg(Me)-Trp-NH2] (Ac-[dY][Hyp]NTF[Ala(4-thiazolyl)]L[Arg(Me)]W-NH2) | 0.3 | –
17 | CNC(=N)NCCC[C@H](NC(=O)[C@H](CC(C)C)NC(=O)C1(NC(=O)[C@H](Cc2ccccc2)NC(=O)[C@@H](NC(=O)[C@H](CC(N)=O)NC(=O)[C@@H]2CC(F)(F)CN2C(=O)[C@@H](Cc2ccc(F)cc2)NC(C)=O)[C@@H](C)O)CCCCC1)C(=O)N[C@@H](Cc1c[nH]c2ccccc12)C(N)=O [YA-212, Ac-[D-Phe(4-F)]-Pro(diF)-Asn-Thr-Phe-A6c-Leu-Arg(Me)-Trp-NH2] (Ac-[dPhe(4-F)][Pro(4,4-F2)]NTF[Ac6c]L[Arg(Me)]W-NH2) | 0.5 | –
18 | CNC(=N)NCCC[C@H](NC(=O)[C@H](CC(C)C)NC(=O)[C@@H]1CCN1C(=O)[C@H](Cc1ccccc1)NC(=O)[C@@H](NC(=O)[C@H](CC(N)=O)NC(=O)[C@@H]1C[C@@H](O)CN1C(=O)[C@@H](Cc1ccc(O)cc1)NC(C)=O)[C@@H](C)O)C(=O)N[C@@H](Cc1c[nH]c2ccccc12)C(N)=O [YA-153, Ac-D-Tyr-Hyp-Asn-Thr-Phe-Aze-Leu-Arg(Me)-Trp-NH2] (Ac-[dY][Hyp]NTF[Aze]L[Arg(Me)]W-NH2) | 0.18 | –
19 | CNC(=N)NCCC[C@H](NC(=O)[C@H](CC(C)C)NC(=O)NN(C)C(=O)[C@H](Cc1ccccc1)NC(=O)[C@@H](NC(=O)[C@H](CC(N)=O)NC(=O)[C@@H]1C[C@@H](O)CN1C(=O)[C@@H](Cc1ccc(O)cc1)NC(C)=O)[C@@H](C)O)C(=O)N[C@@H](Cc1c[nH]c2ccccc12)C(N)=O [YA-247, Ac-(D-Tyr)-Hyp-Asn-Thr-Phe-azaNMeGly-Leu-Arg(Me)-Trp-NH2] (Ac-[dY][Hyp]NTF[X15]L[Arg(Me)]W-NH2) | – | 11
